Assay results reported in patent US12168003B2, “Selective inhibition of T follicular helper cells for treatment of autoimmune disorders” (priority 2019, dated 2024).

Legend:
[1] = system: EAE mice; test: Active EAE (MOG33-55/CFA), 4EGI-1 from initiation of EAE; assay type: in vivo, mouse
Experimental: Ten-week old female mice purchased from Jackson Laboratory were subcutaneously injected at two sites with 100 μL […] emulsified in CFA (Hooke Labs) per flank. On the same day, 6 hours later, and on day 2, mice were injected with 100 ng of pertussis toxin in 200 μL i.p. Mice were monitored daily and scored on a scale of 0-5 where 0, no disease; 1, tail paralysis; 2; hind limb paresis; 3, complete hind limb paralysis; 4, front limb weakness and hind limb paralysis, and 5, moribund state. When stated, mice were either administered 25 mg/kg 4EGI-1 or vehicle i.p. from d 0 to 21 following EAE induction or 75 mg/kg 4EGI-1 or vehicle i.p. from day 12 to 21 following EAE induction and randomization. LFB-H images imported into FIJI underwent color deconvolution to isolate myelin staining. A binary image was generated and % myelination of the spinal cord was calculated. Spinal cords from mice not subjected to EAE were set to 100% and all other samples from the same group were normalized. H&E images imported into FIJI underwent color deconvolution to isolate hematoxylin staining. A binary image was generated and % infiltration of the spinal cord of was calculated. Five-micron sections of paraffin embedded tissue were stained with Akoya Biosciences® Opal™ multiplex automation kit reagents unless stated otherwise. Automated staining was performed on Leica BondRX® autostainer. The protocol was performed according to manufacturers' instructions with primary antibodies to CD19 (Cell Signaling Technology, cat #90176) and CD4 (Cell Signaling Technology, cat #25229). Briefly, all slides underwent sequential epitope retrieval with Leica Biosystems epitope retrieval 2 solution (EDTA based, pH9, Cat. AR9640), primary and secondary antibody incubation and tyramide signal amplification (TSA) with Opal® fluorophores Op690 and Op520. Primary and secondary antibodies were removed during epitope retrieval steps while fluorophores remain covalently attached to the epitope. Semi-automated image acquisition was performed on a Vectra® Polaris multispectral imaging system. After whole slide scanning at 10× the tissue was manually outlined to select fields for multispectral imaging at 20×. Phenochart® software from Akoya Biosciences was used for spectral unmixing of the whole slide scans. Scans were imported into QuPath and representative images were exported into FIJI.

[2] = system: human lymph node CD4+ CD45RO+ T cells; test: In vitro treatment of human lymph node cells with 4EGI-1; assay type: cell-based; conditions: 4EGI-1 overnight, three patients
Experimental: Discarded, deidentified, reactive, but non-malignant human lymph node single cell suspensions were obtained. Presence of TFH cells was confirmed by identification of CD4^+ CD45RO^+ T cells that are PD1^+ CXCR5^+ BCL6^+ and ICOS^+. Lymph node suspensions were incubated overnight at 37° C. in X-VIVO media (Lonza) containing 5% human AB serum (Sigma) and Glutamax with 0-25 μM 4EGI-1. Cells were then stained with a live/dead viability marker and then for extracellular expression of human CD4, CD45RO, CXCR5, PD-1, or ICOS or intranuclear expression of BCL6. Expression of markers was normalized to % of control (0 μM 4EGI-1) to allow for combined statistical analysis of all 3 patients. Antibody clones and dilutions used to identify these populations are detailed in Table 2.

[3] = system: TH17-differentiated 2D2 T cells; test: Passive EAE with TH17-differentiated 2D2 T cells pre-treated with 4EGI-1; assay type: in vivo, mouse; conditions: 2D2 T cells pre-treated with 20 μM 4EGI-1 for 1 h in vitro
Experimental: TH17 2D2 T cells were removed from activation and treated with vehicle or 20 μM 4EGI-1 for 1 h at 37° C. in vitro prior to transfer of 9.3×10^6 2 D2 T cells i.p. per recipient. Mice were given 200 ng pertussis toxin i.p. […] following T cell injection. Animals were monitored daily for 35 days and scored on a scale of 0-5 as described above. At day 35, TFH-like (ICOS^high) Vα3.2 cells were identified from the spinal cord.

In the case of `O=C(O)C(Cc1ccccc1[N+](=O)[O-])=NNc1nc(-c2ccc(Cl)c(Cl)c2)cs1` (mixture of isomers) [4EGI-1], the “clinical EAE severity (daily clinical score)” value ([1]; 25 mg/kg daily i.p., day 0 to 21) is reported as “significantly reduced”, the disease-associated weight loss ([1]; 25 mg/kg daily i.p., from EAE induction) is reported as “significantly reduced” and the “ELFs (ectopic lymphoid follicles) in spinal cord” value ([1]; 25 mg/kg daily, EAE mice) is reported as “substantially reduced”. For the same compound, the “numbers of CD4+ T and B cells in the spinal cords” value ([1]; 25 mg/kg daily, EAE mice, immunofluorescence) was “strongly reduced”, the “level of myelination of the spinal cord (normal = 100%)” value ([1]; 25 mg/kg daily, Luxol fast blue) was about 98% and the “CD4+ T cells producing IFN-γ in spinal cord and brain” value ([1]; 25 mg/kg daily, day 21 of EAE) was “almost abolished”. The “CD4+ T cells producing IL-17A in spinal cord and brain” value ([1]; 25 mg/kg daily, day 21 of EAE) was “almost abolished”, the “reduction of CD4+ T cells in the brain” value ([1]; 25 mg/kg daily, day 21 of EAE) was 3 fold and the “reduction of CD4+ T cells in the spinal cord” value ([1]; 25 mg/kg daily, day 21 of EAE) was 3 fold. For the same compound, the “reduction of TFH cells in the spleen” value ([1]; 25 mg/kg daily, day 21 of EAE) was 3 fold, the “levels of BCL6 protein” value ([2]; 0-30 μM / 0-25 μM) was “rapidly reduced” and the cell viability [2] was “no effect”. The “TFH-like 2D2 T cells (ICOShigh) in the spinal cord” value [3] was “reduced by half” and the “development of passive EAE disease in recipient mice” value [3] was “did not develop disease”.
